Source: US20250032575A1, “USE OF A MURAMYL PEPTIDE IN THE TREATMENT OF SKELETAL GROWTH RETARDATION” (UNIVERSITE CLAUDE BERNARD LYON 1, priority 2021, published 2025)

Legend:
Assay type in all cases: in vivo, mice
[1] = test system: chronically undernourished mouse model; experiment: femur and tibia bone length in chronically undernourished mouse model; settings: at sacrifice day 56, oral, vs placebo
Procedure: (§1) Conventional C57B1/6j laboratory mice have been bred in the Gnotobiology Laboratory for more than 10 generations. Mice have been maintained in IVC cages (Tecniplast, Italy), exposed to 12:12 h light-dark cycles, supplied with tap water and fed ad libitum with sterile diet V1124-300 (Ssniff Spezialdiaten GmbH) (irradiated −25 kGy, Bioster, Czech Republic). The mice have been mated and after delivery, the litter size was reduced to 6 pups per mother. On day 21, male mice have been weaned on the experimental low-protein, low-fat diet (3.5 kcal/gram, protein: 4.1 wt %, carbohydrate: 78 wt %, fat: 2 wt %) and regularly monitored until 56 days after birth (adult age in mice). Mice weaned on the low-protein, low-fat diet have been treated 5 times a week with placebo, composition A containing MDP or composition B containing Murabutide. At the end of the experiment, food and bedding were removed at 8 am and the mice have been sacrificed after 5 hours of fasting by isoflurane inhalation and cervical dislocation. All animals have been sacrificed within one hour between 1 and 2 p.m.
(§2) The daily treatment dose was 30 μL placebo or for MDP 25 μg in 30 μL placebo and for murabutide 28 μg in 30 μL placebo. Each of the compositions has been administered by pipette to the mouse's tongue. The mouse has been maintained until the composition had been swallowed completely.
(§3) To measure body length, the mice have briefly been anaesthetised with isoflurane (Piramal Healthcare, UK). The anaesthetised mouse has been held by the tail and the nose-anus length has been measured using a ruler. Relative length has been calculated as % length gain, where body length at day 21 (weaning) has been set to 100%. The length growth rate has been calculated by dividing the absolute length gain from day 21 to day 56 by the number of days (i.e. 35). Femur and tibia bones have been dissected at sacrifice, fixed in 4% paraformaldehyde—PBS overnight at 4° C., washed with PBS and preserved in 70% ethanol. Bone length has been measured using a digital caliper (Festa).
Conventional C57B1/6j laboratory mice have been bred in the Gnotobiology Laboratory for more than 10 generations. Mice have been maintained in IVC cages (Tecniplast, Italy), exposed to 12:12 h light-dark cycles, supplied with tap water and fed ad libitum with sterile diet V1124-300 (Ssniff Spezialdiäten GmbH) (irradiated −25 kGy, Bioster, Czech Republic). The mice have been mated and after delivery the litter size was reduced to 6 pups per mother. On day 21, male mice have been weaned on the experimental low-protein, low-fat diet (3.5 kcal/gram, protein: 4.1 wt %, carbohydrate: 78 wt %, fat: 2 wt %) and monitored regularly for up to 56 days after birth. […]

IGF-1 = experiment: circulating IGF-1 level in serum, Mouse/Rat IGF-1 Quantikine ELISA; settings: serum at day 56, oral, vs placebo
Procedure: Conventional C57B1/6j laboratory mice have been bred in the Gnotobiology Laboratory for more than 10 generations. Mice have been maintained in IVC cages (Tecniplast, Italy), exposed to 12:12 h light-dark cycles, supplied with tap water and fed ad libitum with sterile diet V1124-300 (Ssniff Spezialdiaten GmbH) (irradiated −25 kGy, Bioster, Czech Republic). The mice have been mated and after delivery, the litter size was reduced to 6 pups per mother. On day 21, male mice have been weaned on the experimental low-protein, low-fat diet (3.5 kcal/gram, protein: 4.1 wt %, carbohydrate: 78 wt %, fat: 2 wt %) and regularly monitored until 56 days after birth (adult age in mice). […]
At the end of the experiment, the blood has been collected and left to coagulate at room temperature for 2 hours. […] IGF-1 levels have been measured using the Mouse/Rat IGF-1 Quantikine ELISA kit (R&D systems) according to the manufacturer's instructions. Data have been analysed using the following statistical test: One way ANOVA with Tukey's multiple comparisons test.
Conventional C57B1/6j laboratory mice have been bred in the Gnotobiology Laboratory for more than 10 generations. […] On day 21, male mice have been weaned on the experimental low-protein, low-fat diet (3.5 kcal/gram, protein: 4.1 wt %, carbohydrate: 78 wt %, fat: 2 wt %) and monitored regularly for up to 56 days after birth. […]

[2] = test system: chronically undernourished mouse model; experiment: body length (nose-anus) growth in chronically undernourished mouse model; settings: for growth rate / relative growth (% length gain, day 21 = 100%) / total height: male mice on low-protein, low-fat diet, day 21 to 56, oral, 5 times a week, vs placebo; for skeletal growth (linear or longitudinal): summary of examples 1 and 2, oral administration, juvenile mice on protein-deficient diet mimicking chronic undernutrition
Procedure: as §1, §2, §3
Conventional C57B1/6j laboratory mice have been bred in the Gnotobiology Laboratory for more than 10 generations. Mice have been maintained in IVC cages (Tecniplast, Italy), exposed to 12:12 h light-dark cycles, supplied with tap water and fed ad libitum with sterile diet V1124-300 (Ssniff Spezialdiäten GmbH) (irradiated −25 kGy, Bioster, Czech Republic). The mice have been mated and after delivery the litter size was reduced to 6 pups per mother. On day 21, male mice have been weaned on the experimental low-protein, low-fat diet (3.5 kcal/gram, protein: 4.1 wt %, carbohydrate: 78 wt %, fat: 2 wt %) and monitored regularly for up to 56 days after birth. Mice weaned on the low-protein, low-fat diet have been treated 5 times a week with either the placebo composition or the composition comprising mifamurtide as prepared in point 1.1 above. At the end of the experiment, the food and bedding were removed at 8 a.m. and the mice have been sacrificed after 5 hours of fasting by isoflurane inhalation and cervical dislocation. All animals have been sacrificed within one hour between 1 and 2 p.m.
Each of the compositions has been administered by pipette to the tongue of the mouse. The mouse has been held until the composition had been swallowed completely.
The tests were carried out on male mice with each of the above compositions P, A, AB and B, according to the protocol indicated in example 1, point 1.1 above (56-day period).
The daily treatment dose was 30 μL of composition P (Placebo) or 25 μg MDP alone in 30 μL of placebo (composition A), or 25 μg MDP and 2.10^8 CFU of Lactiplantibacillus plantarum strain WJL bacteria in 30 μL of placebo (composition AB) or 2.10^8 CFU of Lactiplantibacillus plantarum strain WJL bacteria in 30 μL of placebo (composition B). […]

[3] = Example 2, Mifamurtide 62.5 μg/day in 30 μL
[4] = Example 1, 5 times a week, MDP 25 μg or murabutide 28 μg in 30 μL
[5] = Example 1, MDP 25 μg or murabutide 28 μg in 30 μL

Row | Molecule | size of the femur [1, 3] | size of the tibia [1, 3] | circulating IGF1 level (IGF-1; [3]) | growth rate [2, 3] | relative growth (% length gain, day 21 = 100%) [2, 3] | total height [2, 3] | skeletal growth (linear or longitudinal) [2] | femur size [1, 4] | length of the tibia [1, 4] | circulating IGF1 level (IGF-1; [4]) | growth rate [2, 5] | relative growth (% length gain, day 21 = 100%) [2, 5] | total height [2, 5]
1 | muramyl tripeptide phosphatidyl ethanolamine [Mifamurtide] | significantly increased | significantly increased | significantly increased | significantly increased | significantly increased | significantly increased | positive effect |  |  |  |  |  | 
2 | CCCCOC(=O)[C@@H](CCC(N)=O)NC(=O)[C@H](C)NC(=O)[C@@H](C)O[C@H]1[C@H](O)[C@@H](CO)OC(O)[C@@H]1NC(C)=O (some centres unmarked) [murabutide, muramyl dipeptide butyl ester] |  |  |  |  |  |  | positive effect | positive trend in murabutide treatment that did not reach statistical significance | positive trend of increased growth | significantly increased | significantly increased | significantly increased | significantly increased
